The text below walks through data of US4324788A, “Alkoxyalkylidenhydrazinopridazines and process for their preparation” (I.S.F. S.p.A., priority 1979, dated 1982).

Structures can show the parent of a compound that is named as a salt. Where two headings read alike, the source gives them in different places. Where only a bound is given, the exact number is not on record here.

Data set [1] relates to genetically hypertensive rats. As to the kind of experiment: Arterial pressure and heart rate per os in genetically hypertensive rats (SHR). Format: in vivo, rat (genetically hypertensive. Particulars: for HR DE25 (ED25, dose giving an increase of the heart rate of 25%): > = no increase of the heart rate at the maximal tested dose; for ED25: po, read-out: BP DE25 (ED25, dose giving a drop of the blood pressure of 25%). The text has this: activity on the arterial pressure and on the heart rate has been studied per os in genetically hypertensive rats according to the method described in Pharm. Research Comm.

For the next data set, the system named is strips of rabbit aorta. Briefly: Spasmolytic activity in vitro on strips of rabbit aorta with potassium chloride induced spasm. Format: cell-based. Particulars: Oryctolagus cuniculus, spasm with 30 mM potassium chloride, read-out: EC50 (relaxing 50% the strip of rabbit aorta). The method, then: spasmolytic activity is determined evaluating the direct relaxant effect on the vasal smooth muscle in vitro on strips of rabbit aorta in which spasm was induced by potassium chloride according to the method described in Journ. of Pharm. and Exper. […] The products were added at sequentially cumulative molar doses and their activity indicated as Effective Concentration (EC50).

Another data set can be described thus: in vivo. Particulars: mouse, ip.
For data set [2], the system named is guinea-pig isolated atria. Conditions: isoprenaline agonist, product at 10^-4 M.
Where [3] appears, read: SHR rat, per os, at the moment of maximum effect.

`CC(C)=NNc1ccc(OCC(O)CNC(C)C)nn1.Cl.Cl` (stereo not drawn) [3-(3-Isopropylamino-2-hydroxypropoxy)-6-isopropylidenhydrazinopyridazine dihydrochloride]: the “HR DE25 (ED25, dose giving an increase of the heart rate of 25%)” value in data set [1] (SHR rat, per os) is recorded as > 100 mg/kg/os. Also, the ED25 in data set [1] (setting [3]) was 350 mg/kg. In the data set on strips of rabbit aorta, the EC50 was found to be 1700 µM. The same compound gave an LD50 in the data set “in vivo” of 500 mg/kg. Also, the “DR4 (dose ratio of agonist EC50 in the presence and in the absence of the product)” value in data set [2] amounted to 77.
As to `CC(C)=NNc1ccc(OCC(O)CNC(C)CCc2ccccc2)nn1.Cl.Cl` (stereo not drawn) [3-[3-(4-phenyl-2-butyl)amino-2-hydroxypropoxy]6-isopropylidenhydrazinopyridazine dihydrochloride], the “HR DE25 (ED25, dose giving an increase of the heart rate of 25%)” value in data set [1] (SHR rat, per os) was > 40 mg/kg/os. Also, the ED25 in data set [1] (setting [3]) came out at 17 mg/kg. Further, the median lethal dose (LD50) in “in vivo” was 200 mg/kg. In addition, the “DR4 (dose ratio of agonist EC50 in the presence and in the absence of the product)” value in data set [2] amounted to 80.
For the compound `CC(CCc1ccccc1)NCC(O)c1ccc(O)c(C(N)=O)c1` (stereo not drawn) [Labetalol, reference compound], the “HR DE25 (ED25, dose giving an increase of the heart rate of 25%)” value in data set [1] (SHR rat, per os) is given as > 100 mg/kg/os. Besides, the ED25 in data set [1] (setting [3]) worked out at 400 mg/kg. In the data set on strips of rabbit aorta, the EC50 is > 10000 µM.
Regarding `CC(C)=NNc1ccc(OCC(O)CNC(C)(C)C)nn1` (stereo not drawn) [3-(3-t.Butylamino-2-hydroxypropoxy)-6-isopropylidenhydrazinopyridazine dihydrochloride], in data set [1] (SHR rat, per os), the “HR DE25 (ED25, dose giving an increase of the heart rate of 25%)” value is given as > 100 mg/kg/os. The ED25 in data set [1] (setting [3]) was 50 mg/kg. The compound further registered an LD50 in the data set “in vivo” of 500 mg/kg. Further, in data set [2], the “DR4 (dose ratio of agonist EC50 in the presence and in the absence of the product)” value amounted to 78.
The corresponding values for `COc1ccc(CCNCC(O)COc2ccc(NN=C(C)C)nn2)cc1OC.Cl.Cl` (stereo not drawn) [3-{3[2(3,4-dimethoxyphenyl)ethyl]amino-2-hydroxypropoxy}6-isopropylidenhydrazinopyridazine dihydrochloride] are > 60 mg/kg/os, 39 mg/kg, 300 mg/kg and 531.
Consider `NNc1nncc2ccccc12` [Hydralazine, reference compound], for which the “HR DE25 (ED25, dose giving an increase of the heart rate of 25%)” value in data set [1] (SHR rat, per os) came to 6.0 mg/kg/os. Also, in data set [1] (setting [3]), the ED25 came to 8.1 mg/kg. The EC50 with strips of rabbit aorta amounted to 680 µM. In addition, the “DR4 (dose ratio of agonist EC50 in the presence and in the absence of the product)” value in data set [2] is recorded as 1.
As to `CC(C)NCC(O)COc1cccc2ccccc12` (stereo not drawn) [Propanolol, reference compound], in data set [1] (Rattus norvegicus), the ED25 was > 400 mg/kg. Also, the “HR DE25 (ED25, dose giving an increase of the heart rate of 25%)” value in data set [1] (SHR rat, per os) was > 100 mg/kg/os.
`CCC(C)NCC(O)COc1ccc(NN=C(C)C)nn1.Cl.Cl` (stereo not drawn) [3-[3-(2-butyl)amino-2-hydroxypropoxy]6-isopropylidenhydrazinopyridazine dihydrochloride]: the “HR DE25 (ED25, dose giving an increase of the heart rate of 25%)” value in data set [1] (SHR rat, per os) is on record as > 50 mg/kg/os. Also, in data set [1] (setting [3]), the ED25 was found to be 25 mg/kg. Also, in the data set “in vivo”, the LD50 stood at 300 mg/kg. In addition, the “DR4 (dose ratio of agonist EC50 in the presence and in the absence of the product)” value in data set [2] was 72.

What is called EC50 is the concentration needed to bring the measured effect to its halfway point. What is called LD50 is the dose expected to kill half of the subjects tested. High values mean a less toxic substance, low ones a more toxic substance.
